Experiments:
Type in all cases: cell-based
[1] = system: mouse microglial N9 cells; experiment: cell viability (LDH assay) in microglial N9 cells; conditions: for LDH release activity (cytotoxic effect): basal conditions, 0.5-5 μM, 24 hours (FIG. 4); for cell mortality (LDH release), neuroprotective effect: pre-incubation 0.5-5 μM, then LPS (100 ng/mL) for 24 hours (FIG. 4)
Experimental: Study of the effect of compounds (S)-4, (S)-5, (S)-7, (R)-8, (S)-8, (S)-9, (S)-12, (S)-15 and (S)-16 on the cell viability (LDH assay) in cultures of mouse microglial N9 cells.
The neuroprotective activity of the compounds (S)-4, (S)-5, (S)-7, (R)-8, (S)-8, (S)-9, (S)-12, (S)-15 and (S)-16 was assessed by determining its effect on the cell viability both under basal conditions and following stimulation with bacterial lipopolysaccharide (LPS) toxin. The mouse microglial N9 cells were seeded in a 96-well plate (2x10^4 cells/well) by using RPMI supplemented with 1% fetal bovine serum (FBS) as culture medium. The cells were incubated for 24 hours with different concentrations of the selected compounds (0.5-5 μM) to assess the potential cytotoxic effect of the compounds. The control cells were treated with the carrier only. To quantify the cell mortality, the level of lactate dehydrogenase (LDH) release after 24 hours of treatment was determined. The supernatant of the cell cultures was taken and incubated for 20 minutes at room temperature with the appropriate mixture of reagents according to the instructions of the supplier of the assessment kit (Cytotoxicity Detection Kit, Roche, Germany). The LDH release activity was determined as conversion of lactate to pyruvate by a colorimetric test (X=490 nm, Infinite 200 PRO Detector, TECAN, Switzerland). The LDH release activity is proportional to the 25 number of damaged cells. […] Subsequently, the cells were pre-incubated with different concentrations of the selected compounds (0.5-5 μM) and then stimulated with LPS (100 ng/mL) for 24 hours. The control cells were treated with the carrier only. The cell viability at the end 30 of 24 hours was assessed as previously described.

[2] = system: IL-1β release in mouse microglial N9 cells; experiment: IL-1β release (ELISA) in microglial N9 cells
Experimental: (§1) The anti-inflammatory effect of the compounds (S)-4, (S)-7, (S)-8, (S)-9 and (S)-16 was determined by assessing its ability to affect the release of the pro-inflammatory cytokines IL-1β and TNF-α both in the cells under basal conditions and after stimulation with LPS. The mouse microglial N9 cells were seeded in a 96-well plate (2×10^4 cells/well) by using Iscove supplemented with 10% FBS as culture medium. The cells were then treated with different concentrations of the selected compounds (0.5-5 il.M) for 24 hours. The supernatant was then collected and the IL-1β and TNF-a levels were measured by using specific ELISA kits following the instructions of the supplier (R&D Systems, USA). […] Subsequently, the cells were pre-incubated with different concentrations of the selected compounds (0.5-5 μM) and then stimulated with LPS (100 ng/mL) for 24 hours. The control cells were treated with the carrier only. The IL-1β and TNF-α levels were determined as previously described. […] The specificity of the observed effect was assessed by co-incubating the cells with the FPR2 antagonist WRW4.

[3] = system: TNF-α release in mouse microglial N9 cells; experiment: TNF-α release (ELISA) in microglial N9 cells
Experimental: as §1

[4] = basal conditions, 0.5-5 μM, 24 hours (FIG. 5)
[5] = pre-incubation 0.5-5 μM, then LPS (100 ng/mL) for 24 hours (FIG. 5)
[6] = basal conditions, 0.5-5 μM, 24 hours (FIG. 6)
[7] = pre-incubation 0.5-5 μM, then LPS (100 ng/mL) for 24 hours (FIG. 6)

N#Cc1ccc(C[C@H](NC(=O)Nc2ccc(F)cc2)C(=O)N2CCc3ccccc32)cc1 [(S)-7, (S)-1-(3-(4-Cyanophenyl)-1-(indolin-1-yl)-1-oxopropan-2-yl)-3-(4-fluorophenyl)urea]
LDH release activity (cytotoxic effect) [1]: do not increase the LDH release activity | cell mortality (LDH release), neuroprotective effect [1]: reduce the cell mortality effect caused by the stimulation with LPS | IL-1β release [2, 4]: do not cause increased release of the two cytokines | IL-1β release [2, 5]: reduce the release of inflammatory cytokines | TNF-α release [3, 6]: do not cause increased release of the two cytokines | TNF-α release [3, 7]: reduce the release of inflammatory cytokines

N#Cc1ccc(C[C@H](NC(=O)Nc2ccc(F)cc2)C(=O)N2CCc3ccc(F)cc32)cc1 [(S)-8, (S)-1-(3-(4-Cyanophenyl)-1-(6-fluoroindolin-1-yl)-1-oxopropan-2-yl)-3-(4-fluorophenyl)urea]
LDH release activity (cytotoxic effect) [1]: do not increase the LDH release activity | cell mortality (LDH release), neuroprotective effect [1]: reduce the cell mortality effect caused by the stimulation with LPS | IL-1β release [2, 4]: do not cause increased release of the two cytokines | IL-1β release [2, 5]: reduce the release of inflammatory cytokines | TNF-α release [3, 6]: do not cause increased release of the two cytokines | TNF-α release [3, 7]: reduce the release of inflammatory cytokines

N#Cc1ccc(C[C@H](NC(=O)Nc2ccc(F)cc2)C(=O)N2CCc3cc(F)ccc32)cc1 [(S)-9, (S)-1-(3-(4-Cyanophenyl)-1-(5-fluoroindolin-1-yl)-1-oxopropan-2-yl)-3-(4-fluorophenyl)urea]
LDH release activity (cytotoxic effect) [1]: do not increase the LDH release activity | cell mortality (LDH release), neuroprotective effect [1]: reduce the cell mortality effect caused by the stimulation with LPS | IL-1β release [2, 4]: do not cause increased release of the two cytokines | IL-1β release [2, 5]: reduce the release of inflammatory cytokines | TNF-α release [3, 6]: do not cause increased release of the two cytokines | TNF-α release [3, 7]: reduce the release of inflammatory cytokines

N#Cc1ccc(C[C@H](NC(=O)Nc2ccc(F)cc2)C(=O)NC2CCCCNC2=O)cc1 (stereo partly drawn) [(S)-4, (2S)-3-(4-Cyanophenyl)-2-(3-(4-fluorophenyl)ureido)-N-(2-oxoazepan-3-yl)propanamide]
LDH release activity (cytotoxic effect) [1]: do not increase the LDH release activity | cell mortality (LDH release), neuroprotective effect [1]: reduce the cell mortality effect caused by the stimulation with LPS | IL-1β release [2, 4]: do not cause increased release of the two cytokines | IL-1β release [2, 5]: reduce the release of inflammatory cytokines | TNF-α release [3, 6]: do not cause increased release of the two cytokines | TNF-α release [3, 7]: reduce the release of inflammatory cytokines
